Data published in patent US8586530B2, “Modulation of inhibition of ferrochelatase by N-methyl protoporphyrin” (University of South Florida, priority 2006, dated 2013).

Biological target: T1, ferrochelatase variant P255G (Mus musculus, UniProt P22315, P308G)
T1 construct: In wild-type, murine, mature ferrochelatase, five tryptophan residues; penta-histidine tag (N); made in house; host or cells: E. coli BL21(DE3)
T1 sequence (P22315 54-422 P308G): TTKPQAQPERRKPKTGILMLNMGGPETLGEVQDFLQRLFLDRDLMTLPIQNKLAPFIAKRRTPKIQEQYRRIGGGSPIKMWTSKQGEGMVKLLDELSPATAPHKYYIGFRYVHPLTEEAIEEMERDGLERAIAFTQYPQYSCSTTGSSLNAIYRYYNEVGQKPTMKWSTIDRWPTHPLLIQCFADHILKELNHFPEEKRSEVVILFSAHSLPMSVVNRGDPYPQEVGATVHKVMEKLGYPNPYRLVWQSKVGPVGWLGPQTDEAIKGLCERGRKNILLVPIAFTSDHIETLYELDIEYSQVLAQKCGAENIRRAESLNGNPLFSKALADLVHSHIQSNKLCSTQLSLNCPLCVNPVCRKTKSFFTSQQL
Experiment: Transient kinetic analysis of NMPP inhibition (stopped-flow, zinc-protoporphyrin formation)
Format: biochemical, murine
Description: Enzyme (0.5 μM) was reacted with protoporphyrin (5 μM) and zinc-acetate (15 μM) in the presence of various concentrations of NMPP. The pseudo first-order rate constant k was obtained from analysis of the time course (see Materials and Methods and FIG. 4) and plotted against NMPP concentration. The enzymes used in each set were: A. wild-type ferrochelatase; B. variant P255R; C. variant P255G.
The pseudo-first order rate constant dependence on NMPP concentration was best described by equation 2:
[formula] and k−1 are the forward and reverse rate constants, respectively.
Although NMPP binding to P255G occurred via a one-step reaction, the values for the rate constants associated with this step (k1 and k−1) were similar to those determined for the rate-limiting step of the kinetic pathway for inhibition of ferrochelatase and P255R by NMPP.
Transient Kinetic Analysis. The kinetic steps involved in NMPP binding to ferrochelatase were assessed using stopped-flow absorption spectroscopic analysis by monitoring the enzymatic reaction in the presence of various concentrations of the inhibitor NMPP. The reactions were performed using a rapid scanning stopped-flow spectrophotometer (model RSM-1000; OLIS Inc.), equipped with a stopped-flow mixer and an observation chamber with an optical path-length of 4 mm. The dead time of the instrument is ˜2 ms. […] Enzymatic activity was monitored by following the increase in absorbance at 420 nm for zinc-protoporphyrin production using Zn^2+ and protoporphyrin as substrates.
The enzyme and substrate stock solutions were diluted in 100 mM Tris-acetate, pH 8.0, containing 0.5% Tween-80. […] The enzymatic reaction was initiated by mixing the contents from both syringes and reaction progression was monitored by following the increase in absorbance at 420 nm. The data were analyzed by fitting the observed absorbance values to equation 4:
[formula] where A is the observed absorbance, A0 is the initial absorbance, vs is the steady-state velocity, v0 is the initial velocity and k is the pseudo-first order rate constant for inhibitor binding. […]

N-methyl protoporphyrin [NMPP] was tested, and the “forward rate constant (one-step binding)” value was 8.2e+06 M⁻¹ s⁻¹, the “reverse rate constant k−1 (one-step binding)” value was 18.7 s⁻¹ and the Ki (one-step fit (equation 2), from the rate constants, read-out: apparent inhibition constant Ki^app) was 2300 nM.
